# Experimental data reported in US20230257715A1, “COMPOSITIONS AND METHODS FOR REGULATING ENTEROENDOCRINE CELL DIFFERENTIATION AND USES THEREOF” (The Children's Medical Center Corporation, priority 2020, published 2023).
# Assays:
# human duodenal enteroids = assay: qPCR analysis of enteroendocrine and lineage markers in enteroids; assay type: cell-based; details: for EE cell marker expression on inclusion in DM: compared with GM and DM without betacellulin or PF, qPCR
# Source text: For differentiation, enteroids were passaged and grown in GM for two days, to allow for ISC expansion, after which the organoids were transitioned to tissue-specific differentiation media (DM) with additional small molecules added as described (TABLE 1A and TABLE 1B). Media was changed every two days, with Tubastatin A being removed after the second day of differentiation. Enteroids and rectoids were taken for analysis after 14 days.
# Total RNA was purified from individual wells using TRI®Reagent (Sigma) and the Direct-zol™ RNA kit (Zymo Research), following the manufacturer's protocol. RNA concentration was determined using a NanoDrop™ 1000 spectrophotometer (Life Technologies). RNA was treated with DNAse (Promega) and reverse transcribed using the High-Capacity cDNA Reverse Transcription Kit (Life Technologies). Gene expression analysis was then performed by Real Time quantitative PCR (qPCR) using a QuantStudio 6 Flex thermocycler (Life Technologies). Taqman primers from Life Technologies (TABLE 3) were used. 18S transcripts were used as the internal control and data were expressed using the 2^−ddCt method with Ct limit of 40. Fold change, unless otherwise stated, was compared to total RNA derived from adult whole mucosal tissue biopsies.
# [1] = literature (Sathyapalan et al. 2010); cited from earlier work
# GATA4-NKX2-5 = details: in vitro, literature (Valimaki et al. 2017); cited from earlier work
Molecule,EE cell marker expression on inclusion in DM (human duodenal enteroids),human serum GIP levels [1],"EE lineage marker mRNA expression when added to DM (qPCR) (human duodenal enteroids; compared to enteroids grown in G2D12, FIG. 2.1A)",GATA4-NKX2-5 transcriptional activity (GATA4-NKX2-5)
"Nc1ccc(-c2cnc(N)c(-c3ccc(Cl)cc3)c2)cn1 [PF, PF06260933]",increased expression of EE cell markers,–,–,–
"Cc1c(C(=O)NN2CCCCC2)nn(-c2ccc(Cl)cc2Cl)c1-c1ccc(Cl)cc1 [Rim, rimonabant]",–,increase human serum GIP levels,"induced expression of multiple EE lineage markers (CHGA, NEUROD1, NEUROG3, SST, and GIP) when added to DM, with Rim having a much larger effect",increase the activity of GATA4-NKX2-5 transcriptional activity in vitro
"betacellulin (protein, UniProt P35070 32-111, looked up, Betacellulin, a ligand of both EGFR and the ErbB4 receptor) Betacellulin: DGNSTRSPETNGLLCGDPEENCAATTTQSKRKGHFSRCPKQYKHYCIKGRCRFVVAEQTPSCVCDEGYIGARCERVDLFY",increased expression of EE cell markers,–,–,–
